Measurements from PMC9219103 (ACS Omega, 2022).
Where “and” joins values, the source holds several entries; their conditions need not be identical. Identical values can stand only once.

Assays:
SOD = details: read-out: SOD inhibition IC50; via copper chelation; cited from earlier work
[1] = system: human colon cancer (Caco-2) cells; test: MTT anticancer screening on human colon cancer Caco-2 cells; format: cell-based; details: for IC50: Caco-2, MTT, 72 h, mean ± SEM; for Morphological changes of Caco-2 cells: 72 h treatment, phase contrast microscopy
[2] = system: normal human cells (Wi-38); test: MTT cytotoxicity screening on normal human cells; format: cell-based; details: for EC100 (safe concentration at 100% cell viability): Wi-38 normal human lung fibroblasts, MTT, 72 h, mean ± SEM
ALDH1A = test: Inhibition of ALDH1A activity in treated Caco-2 cells; format: cell-based, human; details: Caco-2 cells treated with anticancer IC50 dose, 72 h
[3] = system: glutathione peroxidase (GPx); test: Inhibition of glutathione peroxidase activity in treated Caco-2 cells; format: cell-based, human; details: Caco-2 cells treated with anticancer IC50 dose, 72 h
Caco-2 cells = test: Determination of cellular ROS in Caco-2; format: cell-based, human; details: Caco-2 cells treated with anticancer IC50 dose
Cu/Zn SOD = Cu/Zn SOD (Homo sapiens, UniProt P00441); test: Inhibition of intracellular SOD activity in treated Caco-2 cells; format: cell-based; details: Caco-2 cells treated with anticancer IC50 dose, 72 h
Chain of Cu/Zn SOD (P00441 whole entry): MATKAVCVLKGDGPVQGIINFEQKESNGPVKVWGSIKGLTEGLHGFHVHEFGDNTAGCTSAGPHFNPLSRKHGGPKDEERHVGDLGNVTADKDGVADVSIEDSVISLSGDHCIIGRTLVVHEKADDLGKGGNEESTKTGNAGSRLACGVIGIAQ

| Compound | IC50 ([1]; Homo sapiens, Caco-2, 72 h) [µM] | EC100 (safe concentration at 100% cell viability) [2] | further results |
| --- | --- | --- | --- |
| C[N+](C)(C)CCO.C[N+](C)(C)CCO.[SH-].[SH-].[S]=[Mo]=[S] [ATN-224, bis-choline tetrathiomolybdate] | – | – | IC50 (SOD): 0.33 µM |
| O=C1CSC(=O)N1 [Compound 1, 2,4-thiazolidinedione] | 12.1 ± 3.25 | 22.05 µM and 22.047 ± 0.434 µM | – |
| O=C1N=C(O)SC1=Cc1ccccc1 [Compound 3a, 5-Benzylidenethiazolidine-2,4-dione] | 74.6 ± 8.31 | 19.679 ± 3.105 µM | – |
| O=C1NC(=O)C(=Cc2ccc([N+](=O)[O-])cc2)S1 [Compound 3c, 5-(4-Nitrobenzylidene)thiazolidine-2,4-dione] | 4.71 | 6.0653 ± 0.127 µM | Morphological changes of Caco-2 cells [1]: severe shrinkage and collapse; IC50 [1]: 4.72 ± 0.602 µM |
| CN(C)c1ccc(C=C2SC(O)=NC2=O)cc1 [Compound 3d, 5-(4-(Dimethylamino)benzylidene)thiazolidine-2,4-dione] | 8.95 ± 0.631 | 25.35 µM and 25.345 ± 0.655 µM | – |
| O=C1NC(=O)C(=Cc2ccc(O)cc2)S1 [Compound 3e, 5-(4-Hydroxybenzylidene)thiazolidine-2,4-dione] | 8.48 ± 0.599 | 6.727 ± 0.040 µM | – |
| C=CCN1C(=O)SC(=Cc2ccccc2)C1=O [Compound 4a, 3-Allyl-5-benzylidenethiazolidine-2,4-dione] | 12 ± 1.36 | 58.92 µM and 58.916 ± 10.698 µM | EC100 fold relative to doxorubicin (safety) ([2]; Wi-38, EC100 compound vs DOX): approximately 47.5 folds |
| C=CCN1C(=O)SC(=Cc2cccc(Cl)c2)C1=O [Compound 4b, 3-Allyl-5-(3-chlorobenzylidene)thiazolidine-2,4-dione] | 13.8 ± 0.789 | 9.902 ± 2.360 µM | – |
| C=CCN1C(=O)SC(=Cc2ccc([N+](=O)[O-])cc2)C1=O [Compound 4c, 3-Allyl-5-(4-nitrobenzylidene)thiazolidine-2,4-dione] | 6.52 ± 0.077 | 7.078 ± 0.136 µM | – |
| C=CCN1C(=O)SC(=Cc2ccc(N(C)C)cc2)C1=O [Compound 4d, 3-Allyl-5-(4-(dimethylamino)benzylidene)thiazolidine-2,4-dione] | 7.062 ± 0.005 | – | – |
| C=CCOc1ccc(C=C2SC(=O)N(CC=C)C2=O)cc1 [Compound 4e, 3-Allyl-5-(4-(allyloxy)benzylidene)thiazolidine-2,4-dione] | 12.2 ± 3.12 | – | – |
| CCOC(=O)CN1C(=O)SC(=Cc2ccccc2)C1=O [Compound 5a, Ethyl-2-(5-benzylidene-2,4-dioxothiazolidin-3-yl)acetate] | 8.2 ± 0.135 | – | – |
| CCOC(=O)CN1C(=O)SC(=Cc2ccc([N+](=O)[O-])cc2)C1=O [Compound 5c, Ethyl-2-(5-(4-nitrobenzylidene)-2,4-dioxothiazolidin-3-yl)acetate] | 6.67 ± 0.118 | 8.573 ± 0.409 µM | – |
| CCOC(=O)CN1C(=O)SC(=Cc2ccc(N(C)C)cc2)C1=O [Compound 5d, Ethyl-2-(5-(4-(dimethylamino)benzylidene)-2,4-dioxothiazolidin-3-yl)acetate] | 8.24 ± 2.59 | 16.179 ± 6.066 µM | – |
| CCOC(=O)COc1ccc(C=C2SC(=O)N(CC(=O)OCC)C2=O)cc1 [Compound 5e, Ethyl-2-(5-(4-(2-ethoxy-2-oxoethoxy)benzylidene)-2,4-dioxothiazolidin-3-yl)acetate] | 8.57 ± 0.942 | 8.417 ± 0.004 µM | – |
| O=C1SC(=Cc2ccccc2)C(=O)N1CCCBr [Compound 6a, 5-Benzylidene-3-(3-bromopropyl)thiazolidine-2,4-dione] | 4.73 | 18.938 ± 0.975 µM | Morphological changes of Caco-2 cells [1]: severe shrinkage and collapse; IC50 [1]: 4.739 ± 0.021 µM |
| O=C1SC(=Cc2ccc([N+](=O)[O-])cc2)C(=O)N1CCCBr [Compound 6c, 3-(3-Bromopropyl)-5-(4-nitrobenzylidene)thiazolidine-2,4-dione] | 10.4 ± 0.499 | 13.424 ± 1.130 µM | – |
| CN(C)c1ccc(C=C2SC(=O)N(CCCBr)C2=O)cc1 [Compound 6d, 3-(3-Bromopropyl)-5-(4-(dimethylamino)benzylidene)thiazolidine-2,4-dione] | 7.94 ± 0.599 | 14.776 ± 1.125 µM | – |
| O=C1SC(=Cc2ccc(OCCCBr)cc2)C(=O)N1CCCBr [Compound 6e, 5-(4-(3-Bromopropoxy)benzylidene)-3-(3-bromopropyl)thiazolidine-2,4-dione] | 4.41 | 10.683 ± 2.384 µM | Morphological changes of Caco-2 cells [1]: severe shrinkage and collapse; IC50 [1]: 4.41 ± 0.546 µM |
| O=C1SC(=Cc2ccccc2)C(=O)N1CCCO [Compound 7a, 5-Benzylidene-3-(3-hydroxypropyl)thiazolidine-2,4-dione] | 10.2 ± 0.77 | 18.923 ± 1.959 µM | – |
| O=C1SC(=Cc2ccc([N+](=O)[O-])cc2)C(=O)N1CCCO [Compound 7c, 3-(3-Hydroxypropyl)-5-(4-nitrobenzylidene)thiazolidine-2,4-dione] | 6.77 ± 0.096 | 11.439 ± 0.927 µM | – |
| CN(C)c1ccc(C=C2SC(=O)N(CCCO)C2=O)cc1 [Compound 7d, 5-(4-(Dimethylamino)benzylidene)-3-(3-hydroxypropyl)thiazolidine-2,4-dione] | 7.118 ± 0.01 | 12.073 ± 3.577 µM | – |
| COc1cccc2c1C(=O)c1c(O)c3c(c(O)c1C2=O)C[C@@](O)(C(=O)CO)C[C@@H]3O[C@H]1C[C@H](N)[C@H](O)[C@H](C)O1 [DOX, doxorubicin] | 19.9 | 1.239 ± 0.285 µM | Inhibition of ALDH1A activity (ALDH1A): about 4.800%; Inhibition of GPx activity [3]: 40.31%; IC50 [1]: 19.9 ± 2.37 µM; Fold increment in cellular ROS level relative to untreated cells (Caco-2 cells): 4.065 folds; Inhibition of intracellular SOD activity (Cu/Zn SOD): 30.78% |
